According to patent US9085791B2, “Method for screening substance relating to endoplasmic reticulum stress participating in onset of diabetes” (THE UNIVERSITY OF TOKUSHIMA, priority 2011, dated 2015):

Key:
Type in all cases: cell-based
HEK293 cells = test: Hoechst33258 staining for cell death of stimulated HEK293 cells; conditions: etoposide 100 uM, thapsigargin 0.2 uM, DTT 1 mM, after 36 hours
ATF6 activation [1] = test: ATF6 activity reporter system (EGFPS-ATF6d and EGFPL expression vectors) in HEK293 cells, green fluorescence
Source text: An EGFPS-ATF6d expression vector and an EGFPL expression vector were produced using a green fluorescent protein GFP as a reporter protein. An ATF6 activity reporter system having the two vectors was introduced into the following cell strains.
The EGFPS-ATF6d expression vector and the EGFPL expression vector were introduced into HEK293 cells using a polyethylene imine method at an efficiency of not less than 90%. Through an electroporation method using NEON (electroporation device) (Invitrogen), the EGFPS-ATF6d expression vector and the EGFPL expression vector were introduced into MIN6 cells, HepG2 cells, 3T3-L1 cells, and L6 cells at an efficiency of not less than 80%, 60%, 90%, and 70%, respectively.
In order to confirm that the ATF6 activity reporter system functions in an endoplasmic reticulum stress-dependent manner, the EGFPS-ATF6d expression vector and the EGFPL expression vector were coexpressed or individually expressed in HEK293 cells.
In the cells in which the EGFPS-ATF6d expression vector and the EGFPL expression vector were coexpressed, green fluorescence was slightly observed. The cells were stimulated with 0.2 ug/ml tunicamycin, which is an endoplasmic reticulum stress inducer, and observed 6 hours after the stimulation.
It is important that ATF6 activity reporter system is capable of detecting ATF6 activation in an endoplasmic reticulum stress-specific manner. Therefore, HEK293 cells in which the EGFPS-ATF6d expression vector and the EGFPL expression vector are coexpressed are stimulated by etoposide, which is a DNA replication inhibitor; thapsigargin, which is an endoplasmic reticulum stress inducer; and DTT, which is an endoplasmic reticulum stress inducer, in an amount of 100 uM, 0.2 uM, and 1 mM, respectively; and the presence of fluorescence was observed.

PERK pathway = test: PERK activation reporter (ATF4 translation) in cell strains derived from different organs; conditions: HepG2, MIN6, L6, 3T3-L1 cells; 0.2 ug/ml tunicamycin, 6 hours
Source text: (§1) The endoplasmic reticulum stress response is controlled by the three pathways, namely, Ire1 pathway, PERK pathway, and ATF6 pathway. Apart from the homeostasis of endoplasmic reticulum, they are also individually involved in control of organ-specific metabolism. Detection of the three endoplasmic reticulum stress response pathways is considered important to discover a drug targeting organ-specific endoplasmic reticulum stress response with fewer side effects. […] Med. (2004) 10 98-102, for measuring Ire1 pathway by XBP1 splicing, and a PERK activation reporter expression vector, disclosed in J Cell Biol. (2004) 167 27-33, for measuring PERK pathway by ATF4 translation were produced. An EGFPS-ATF6d expression vector, an EGFPL expression vector, the Ire1 activation reporter expression vector, and the PERK activation reporter expression vector were expressed in pancreatic β-cell strain MIN6 cells, hepatic cell strain HepG2 cells, adipose cell strain 3T3-L1 cells, and skeletal muscle cell strain L6 cells, respectively. The cells were observed 6 hours after the stimulation with 0.2 ug/ml tunicamycin, which is an endoplasmic reticulum stress inducer.

ATF6 activation [2] = test: ATF6 activity reporter system in mouse fibroblasts modified by deleting Ire1α gene or PERK gene; conditions: 0.2 ug/ml tunicamycin, 6 hours
Method: The endoplasmic reticulum stress response is known to be controlled by three individual pathways. It is important that the ATF6 activity reporter system enables detection of ATF6 activation with no influence of other pathways, such as Ire1 pathway or PERK pathway. In this connection, the EGFPS-ATF6d expression vector and the EGFPL expression vector were coexpressed in mouse fibroblasts modified by deleting Ire1α gene or PERK gene. The cells were observed 6 hours after stimulation with 0.2 ug/ml tunicamycin, which is an endoplasmic reticulum stress inducer.

IRE1 pathway = test: Ire1 activation reporter (XBP1 splicing) in cell strains derived from different organs; conditions: 0.2 ug/ml tunicamycin, 6 hours
Source text: as §1

ATF6 pathway = test: ATF6 activity reporter system in cell strains derived from different organs; conditions: HepG2, MIN6, L6, 3T3-L1 cells; 0.2 ug/ml tunicamycin, 6 hours
Source text: as §1

MIN6 cells = test: Insulin secretion in pancreatic β-cell MIN6 cells (ELISA); conditions: thapsigargin 0.2 uM or DTT 1 M for 30 minutes, culture 36 hours, then KREBS buffer with 3 mM or 20 mM glucose for 1 hour
Method: A control solution (DMSO), a thapsigargin solution (thapsigargin/DMSO solution), or a DTT solution (DTT/DMSO solution) was added to a culture solution (DMEM containing 10% fetal bovine serum) in which pancreatic p-cell MIN6 cells are cultured, and the culture solution was replaced with a general culture solution (DMEM containing 10% fetal bovine serum) after 30 minutes. Then, the culture was continued for 36 hours. The thapsigargin solution was added so that the thapsigargin concentration in the culture solution became 0.2 uM, and the DTT solution was added so that the DTT concentration in the culture solution became […]. Thereafter, the culture solution was replaced with a KREBS buffer solution containing 3 mM or 20 mM glucose, and the culture was continued for 1 hours. The concentration of insulin secreted in the culture solution was measured according to the ELISA method.

[3] = HEK293 cells coexpressing both vectors, etoposide 100 uM, thapsigargin 0.2 uM, DTT 1 mM

Q: With `COc1cc([C@@H]2c3cc4c(cc3[C@@H](O[C@@H]3O[C@@H]5CO[C@@H](C)O[C@H]5[C@H](O)[C@H]3O)[C@H]3COC(=O)[C@H]23)OCO4)cc(OC)c1O` [etoposide] as the compound, how does the “cell death (Hoechst33258 staining)” value (HEK293 cells) read?
A: severe enough to cause cell death after 36 hours

Q: What about the green fluorescence (ATF6 activation [1]; [3]) of the same compound?
A: no green fluorescence was observed

Q: tunicamycin was tested. Which “degree of the activation of PERK pathway, order among cell strains” value (PERK pathway) did it give?
A: highest in hepatic cell strain HepG2 cells (pancreatic β-cell strain MIN6 cells and skeletal muscle cell strain L6 cells), followed by adipose cell strain 3T3-L1 cells

Q: And the green fluorescence (ATF6 activation [2]; fibroblast modified by Ire1α gene deletion)?
A: significant green fluorescence was observed

Q: What about the green fluorescence (ATF6 activation [2]; fibroblast modified by PERK gene deletion) of the same compound?
A: significant green fluorescence was observed

Q: What about the green fluorescence (ATF6 activation [1]; 0.2 ug/ml tunicamycin, 6 hours after stimulation, HEK293 cells coexpressing EGFPS-ATF6d and EGFPL expression vectors) of the same compound?
A: significant green fluorescence was observed

Q: What about the green fluorescence (ATF6 activation [1]; 0.2 ug/ml tunicamycin, 6 hours after stimulation, HEK293 cells with EGFPS-ATF6d and EGFPL expression vectors individually expressed) of the same compound?
A: no green fluorescence was observed

Q: What about the “activation of IRE1 pathway (fluorescence intensity)” value (“activation of IRE1 pathway” for short) (IRE1 pathway; adipose cell strain 3T3-L1 cells) of the same compound?
A: relatively low

Q: What about the “activation of IRE1 pathway” value (IRE1 pathway; hepatic cell strain HepG2 cells) of the same compound?
A: relatively high

Q: And the “activation of IRE1 pathway” value (IRE1 pathway; pancreatic β-cell strain MIN6 cells)?
A: relatively high

Q: What about the “activation of IRE1 pathway” value (IRE1 pathway; skeletal muscle cell strain L6 cells) of the same compound?
A: relatively high

Q: What about the “intensity of activation of ATF6 pathway, order among cell strains” value (ATF6 pathway) of the same compound?
A: highest in hepatic cell strain HepG2 cells, followed by pancreatic β-cell strain MIN6 cells, skeletal muscle cell strain L6 cells, and adipose cell strain 3T3-L1 cells in descending order

Q: Which “cell death (Hoechst33258 staining)” value (HEK293 cells) does the source give for `C/C=C(/C)C(=O)O[C@H]1C(C)=C2[C@H]([C@@H]1OC(=O)CCCCCCC)[C@@](C)(OC(C)=O)C[C@H](OC(=O)CCC)[C@@]1(O)[C@H]2OC(=O)[C@@]1(C)O` [thapsigargin] here?
A: severe enough to cause cell death after 36 hours

Q: And the green fluorescence (ATF6 activation [1]; [3])?
A: significant green fluorescence was observed

Q: And the “insulin secretion (concentration of insulin secreted in the culture solution)” value (MIN6 cells)?
A: insulin secretion was suppressed

Q: How did the “cell death (Hoechst33258 staining)” value (HEK293 cells) turn out when `O[C@H](CS)[C@H](O)CS` (racemic) [DTT, dithiothreitol] was run?
A: severe enough to cause cell death after 36 hours

Q: And the green fluorescence (ATF6 activation [1]; [3])?
A: significant green fluorescence was observed

Q: What about the “insulin secretion (concentration of insulin secreted in the culture solution)” value (MIN6 cells) of the same compound?
A: insulin secretion was suppressed
